In ChEMBL document CHEMBL5055667, “Development of Novel VEGFR2 Inhibitors Originating from Natural Product Analogues with Antiangiogenic Impact” (J Med Chem, 2021):
The source made the active and inactive calls. No cut-off for these calls is given here.

How the values were obtained:
[1] = biological target: Vascular endothelial growth factor receptor 2 (Homo sapiens, UniProt P35968); assay: Inhibition of VEGFR2 phosphorylation in VEGF-induced HUVEC cells pretreated measured after overnight incubation by immunoblotting analysis; format: cell-based
HUVEC [2] = assay: Antiproliferative activity against HUVEC cells incubated for 72 hrs under serum treatment by MTT assay; format: functional, cell-based; conditions: Homo sapiens
U-87 MG [3] = assay: Antiproliferative activity against human U-87MG cells incubated for 72 hrs under serum treatment by MTT assay; format: functional, cell-based; conditions: U-87MG ATCC
HUVEC [4] = assay: Antiproliferative activity against HUVEC cells incubated for 72 hrs under VEGF treatment by MTT assay; format: functional, cell-based; conditions: Homo sapiens
U-87 MG [5] = assay: Antiproliferative activity against human U87MG cells incubated for 72 hrs under VEGF treatment by MTT assay; format: functional, cell-based; conditions: U-87MG ATCC
U-87 MG [6] = assay: Antitumor activity against human U-87MG cells xenografted in mouse assessed as reduction in tumor size at 10 mg/kg, ip treated every other day for 20 days; format: functional, organism-based; conditions: U-87MG ATCC, time 20.0 day
U-87 MG [7] = assay: Antitumor activity against human U-87MG cells xenografted in mouse assessed as reduction in tumor weight at 10 mg/kg, ip treated every other day for 20 days; format: functional, organism-based; conditions: U-87MG ATCC, time 20.0 day
Mus musculus = assay: Toxicity in mouse assessed as change in body weight at 10 mg/kg, ip treated every other day for 20 days; format: organism-based; conditions: in vivo, 480 h, time 20 day
U-87 MG [8] = assay: Antiangiogenic activity against human U-87MG cells xenografted in mouse assessed as reduction in vascular density at 10 mg/kg, ip treated every other day for 20 days by H& E staining analysis relative to control; format: functional, U-87MG ATCC; conditions: 480 h, time 20 day
U-87 MG [9] = assay: Antiangiogenic activity against human U-87MG cells xenografted in mouse assessed as reduction in Bcl-xl expression at 10 mg/kg, ip treated every other day for 20 days by Western blotting analysis; format: functional, U-87MG ATCC; conditions: 480 h, time 20 day
U-87 MG [10] = assay: Antiangiogenic activity against human U-87MG cells xenografted in mouse assessed as reduction in CD31 expression at 10 mg/kg, ip treated every other day for 20 days by Western blotting analysis; format: functional, U-87MG ATCC; conditions: 480 h, time 20 day
U-87 MG [11] = assay: Antiangiogenic activity against human U-87MG cells xenografted in mouse assessed as reduction in pVEGFR2 expression at 10 mg/kg, ip treated every other day for 20 days by Western blotting analysis; format: functional, U-87MG ATCC; conditions: 480 h, time 20 day
U-87 MG [12] = assay: Antiangiogenic activity against human U-87MG cells xenografted in mouse assessed as reduction in HIF1alpha expression at 10 mg/kg, ip treated every other day for 20 days by fluorescence microscopy; format: functional, organism-based; conditions: U-87MG ATCC, time 20.0 day

Vascular endothelial growth factor receptor 2, sequence (P35968 whole entry): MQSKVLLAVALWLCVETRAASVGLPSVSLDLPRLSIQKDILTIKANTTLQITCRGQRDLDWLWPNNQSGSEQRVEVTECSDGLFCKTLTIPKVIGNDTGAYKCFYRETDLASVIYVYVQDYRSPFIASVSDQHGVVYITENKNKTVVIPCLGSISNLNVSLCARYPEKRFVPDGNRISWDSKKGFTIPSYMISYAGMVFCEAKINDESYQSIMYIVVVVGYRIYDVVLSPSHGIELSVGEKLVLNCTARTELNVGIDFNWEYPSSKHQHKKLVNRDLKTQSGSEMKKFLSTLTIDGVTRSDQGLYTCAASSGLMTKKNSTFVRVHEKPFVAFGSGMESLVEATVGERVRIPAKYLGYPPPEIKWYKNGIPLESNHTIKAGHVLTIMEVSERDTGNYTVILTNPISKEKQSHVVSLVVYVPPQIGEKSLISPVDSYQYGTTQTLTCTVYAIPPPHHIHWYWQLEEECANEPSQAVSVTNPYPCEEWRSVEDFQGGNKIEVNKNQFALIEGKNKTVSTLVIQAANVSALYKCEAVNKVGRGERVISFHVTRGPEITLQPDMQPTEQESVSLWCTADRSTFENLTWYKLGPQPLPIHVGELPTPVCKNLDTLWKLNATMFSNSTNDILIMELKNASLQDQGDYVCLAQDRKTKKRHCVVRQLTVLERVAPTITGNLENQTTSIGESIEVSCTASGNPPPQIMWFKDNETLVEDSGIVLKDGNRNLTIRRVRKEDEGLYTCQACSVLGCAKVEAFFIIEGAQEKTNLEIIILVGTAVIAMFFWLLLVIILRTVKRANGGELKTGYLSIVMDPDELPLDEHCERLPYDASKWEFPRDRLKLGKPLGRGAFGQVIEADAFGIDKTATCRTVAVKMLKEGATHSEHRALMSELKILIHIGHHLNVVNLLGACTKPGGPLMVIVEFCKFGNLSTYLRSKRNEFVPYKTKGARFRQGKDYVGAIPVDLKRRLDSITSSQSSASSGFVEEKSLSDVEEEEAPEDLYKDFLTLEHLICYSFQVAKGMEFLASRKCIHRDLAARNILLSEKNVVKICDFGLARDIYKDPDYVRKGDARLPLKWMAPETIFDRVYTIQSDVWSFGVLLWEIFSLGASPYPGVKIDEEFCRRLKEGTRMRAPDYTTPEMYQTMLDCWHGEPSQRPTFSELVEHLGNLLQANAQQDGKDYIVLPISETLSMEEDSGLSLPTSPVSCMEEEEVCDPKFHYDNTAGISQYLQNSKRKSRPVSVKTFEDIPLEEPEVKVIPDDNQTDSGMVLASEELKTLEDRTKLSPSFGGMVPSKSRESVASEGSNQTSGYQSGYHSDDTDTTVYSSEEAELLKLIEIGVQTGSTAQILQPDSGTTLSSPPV

For `COc1ccc2[nH]c3c(c2c1)CN(C(=O)CC(C)C)CCC3`, the IC50 [1] was greater than 20 µM.

In the case of `COc1ccc2[nH]c3c(c2c1)CN(C(=O)CN1CCOCC1)CCC3`, the IC50 [1] is reported as greater than 20 µM.

`COc1ccc2[nH]c3c(c2c1)CN(C(=O)Cc1ccccc1)CCC3` gave an IC50 [1] greater than 20 µM.

`COc1ccc2[nH]c3c(c2c1)CN(C(=O)Cc1ccncc1)CCC3` showed an IC50 [1] greater than 20 µM.

`COc1ccc2[nH]c3c(c2c1)CNCCC3` gave an IC50 [1] greater than 20 µM.

For `COc1ccc2[nH]c3c(c2c1)CN(C(=O)Cc1ccccn1)CCC3`, the Activity (HUVEC [2]) was “inactive”, the Activity (U-87 MG [3]) was “inactive” and the Activity (HUVEC [4]) was “Active”. For the same compound, the Activity (U-87 MG [5]) was “Active”, the Activity (U-87 MG [6]) was “Active” and the Activity (U-87 MG [7]) was “Active”. The Activity (Mus musculus) was “Non-Toxic”, the inhibition in vivo at 10 mg/kg (U-87 MG [8]) was 73% and the inhibition in vivo at 10 mg/kg (U-87 MG [9]) was 20%. For the same compound, the inhibition in vivo at 10 mg/kg (U-87 MG [10]) was 60%, the inhibition in vivo at 10 mg/kg (U-87 MG [11]) was 60% and the Activity (U-87 MG [12]) was “Active”.
